Columns and labels:
Assay type in all cases: in vivo
[1] = system: smallflower flatsedge (Cyperus difformis); experiment: Test B flood test
Procedure, shortened: (§1)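 Read-out is a visual response score from 0 (no effect) to 10 (complete control), assigned by comparison with untreated controls. Treatment was applied at the 2-leaf stage, and plants stayed in the greenhouse for twelve to sixteen days before scoring.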

[2] = system: bamyardgrass (Echinochloa crus-galli); experiment: Test B flood test
Procedure, shortened: as §1

[3] = system: duck salad (Heteranthera limosa); experiment: Test B flood test
Procedure, shortened: as §1

[4] = system: rice (Oryza sativa); experiment: Test B flood test
Procedure, shortened: as §1

[5] = system: bedstraw (Galium aparine); experiment: Test B pre-/postemergence; parameters: key: 0 is no effect; 10 is complete control; settings: for Bedstraw plant response rating: Preemergence
Description: (§2) Seeds of bedstraw (Galium aparine), blackgrass (Alopecurus myosuroides), broadleaf signalgrass (Brachiaria decumbens), cocklebur (Xanthium strumarium), corn (Zea mays), crabgrass (Digitaria sanguinalis), giant foxtail (Setaria faberii), lambsquarters (Chenopodium album), momingglory (Ipomoea hederacea), pigweed (Amaranthus retroflexus), rape (Brassica napus), soybean (Glycine max), sugar beet (Beta vulgaris), velvetleaf (Abutilon theophrasti), wheat (Triticum aestivum), wild oat (Avena fatua) and purple nutsedge (Cyperus rotundus) tubers were planted and treated preemergence with test chemicals formulated in a non-phytotoxic solvent mixture which included a surfactant.
(§3) At the same time, these crop and weed species were also treated with postemergence applications of test chemicals formulated in the same manner. Plants ranged in height from 2 to 18 cm (1- to 4-leaf stage) for postemergence treatments. Plant species in the flood test consisted of rice (Oryza sativa), smallflower flatsedge (Cyperus difformis), duck salad (Heteranthera limosa) and bamyardgrass (Echinochloa crus-galli) grown to the 2-leaf stage for testing. Treated plants and controls were maintained in a greenhouse for twelve to sixteen days, after which all species were compared to controls and visually evaluated. Plant response ratings, summarized in Table B, are based on a scale of 0 to 10 where 0 is no effect and 10 is complete control. A dash (−) response means no test result.

[6] = system: rape (Brassica napus); experiment: Test B pre-/postemergence; parameters: key: 0 is no effect; 10 is complete control
Description: as §2, §3

[7] = system: momingglory (Ipomoea hederacea); experiment: Test B pre-/postemergence; parameters: key: 0 is no effect; 10 is complete control
Description: as §2, §3

[8] = system: corn (Zea mays); experiment: Test B pre-/postemergence; parameters: key: 0 is no effect; 10 is complete control; settings: for Corn plant response rating: Preemergence
Description: as §2, §3

[9] = system: pigweed (Amaranthus retroflexus); experiment: Test B pre-/postemergence; parameters: key: 0 is no effect; 10 is complete control
Description: as §2, §3

[10] = system: sugar beet (Beta vulgaris); experiment: Test B pre-/postemergence; parameters: key: 0 is no effect; 10 is complete control
Description: as §2, §3

[11] = system: crabgrass (Digitaria sanguinalis); experiment: Test B pre-/postemergence; parameters: key: 0 is no effect; 10 is complete control; settings: for Crabgrass plant response rating: Preemergence
Description: as §2, §3

[12] = system: broadleaf signalgrass (Brachiaria decumbens); experiment: Test B pre-/postemergence; parameters: key: 0 is no effect; 10 is complete control; settings: for B. signalgrass plant response rating: Preemergence
Description: as §2, §3

[13] = system: soybean (Glycine max); experiment: Test B pre-/postemergence; parameters: key: 0 is no effect; 10 is complete control
Description: as §2, §3

[14] = system: purple nutsedge (Cyperus rotundus); experiment: Test B pre-/postemergence; parameters: key: 0 is no effect; 10 is complete control
Description: as §2, §3

[15] = system: cocklebur (Xanthium strumarium); experiment: Test B pre-/postemergence; parameters: key: 0 is no effect; 10 is complete control; settings: for Cocklebur plant response rating: Preemergence
Description: as §2, §3

[16] = system: velvetleaf (Abutilon theophrasti); experiment: Test B pre-/postemergence; parameters: key: 0 is no effect; 10 is complete control
Description: as §2, §3

[17] = system: giant foxtail (Setaria faberii); experiment: Test B pre-/postemergence; parameters: key: 0 is no effect; 10 is complete control
Description: as §2, §3

[18] = system: blackgrass (Alopecurus myosuroides); experiment: Test B pre-/postemergence; parameters: key: 0 is no effect; 10 is complete control; settings: for Blackgrass plant response rating: Preemergence
Description: as §2, §3

[19] = system: wheat (Triticum aestivum); experiment: Test B pre-/postemergence; parameters: key: 0 is no effect; 10 is complete control
Description: as §2, §3

[20] = system: wild oat (Avena fatua); experiment: Test B pre-/postemergence; parameters: key: 0 is no effect; 10 is complete control
Description: as §2, §3

[21] = Rate 62 g/ha, Postemergence (flood test)
[22] = Rate 125 g/ha, Postemergence section (flood test species)
[23] = Rate 250 g/ha, Postemergence (flood test species)
[24] = Rate 125 g/ha, Postemergence, flood test
[25] = Rate 250 g/ha, Postemergence (so in the source)

## Cc1cnc(-c2ccc(Cl)cc2F)nc1Cc1cccc(C(F)(F)F)c1 [Compound 29]
[1]; [21]
  Plant response rating, S. Flatsedge: 1
[1]; [22]
  S. Flatsedge plant response rating: 6
[1]; [23]
  Plant response rating, S. Flatsedge: 8
[2]; [21]
  Plant response rating, Barnyardgrass: 2
[2]; [24]
  Plant response rating, Barnyardgrass: 3
[2]; [23]
  Plant response rating, Barnyardgrass: 4
[3]; [21]
  Plant response rating, Ducksalad: 1
[3]; [24]
  Plant response rating, Ducksalad: 3
[3]; [23]
  Plant response rating, Ducksalad: 4
[4]; [21]
  Plant response rating, Rice: 1
[4]; [22]
  Rice plant response rating: 2
[4]; [23]
  Plant response rating, Rice: 3
[5]; Rate 62 g/ha, Postemergence
  Plant response rating, Bedstraw: 2
[5]; Rate 62 g/ha
  Bedstraw plant response rating: 0
[5]; Rate 125 g/ha, Postemergence
  Plant response rating, Bedstraw: 9
[5]; Rate 125 g/ha
  Bedstraw plant response rating: 1
[5]; Rate 250 g/ha, Postemergence
  Plant response rating, Bedstraw: 9
[5]; [25]
  Plant response rating, Bedstraw: 3
[6]; Rate 62 g/ha, Postemergence
  Plant response rating, Rape: 8
[6]; Rate 62 g/ha, Preemergence
  Rape plant response rating: 1
[6]; Rate 125 g/ha, Postemergence
  Rape plant response rating: 9
[6]; Rate 125 g/ha, Preemergence
  Rape plant response rating: 1
[6]; Rate 250 g/ha, Postemergence
  Plant response rating, Rape: 9
[6]; [25]
  Plant response rating, Rape: 1
[7]; Rate 62 g/ha, Postemergence
  Plant response rating, Morningglory: 8
[7]; Rate 62 g/ha, Preemergence
  Morningglory plant response rating: 0
[7]; Rate 125 g/ha, Postemergence
  Morningglory plant response rating: 10
[7]; Rate 125 g/ha, Preemergence
  Morningglory plant response rating: 2
[7]; Rate 250 g/ha, Postemergence
  Plant response rating, Morningglory: 10
[7]; [25]
  Plant response rating, Morningglory: 3
[8]; Rate 62 g/ha, Postemergence
  Plant response rating, Corn: 2
[8]; Rate 62 g/ha
  Corn plant response rating: 0
[8]; Rate 125 g/ha, Postemergence
  Plant response rating, Corn: 2
[8]; Rate 125 g/ha
  Corn plant response rating: 0
[8]; Rate 250 g/ha, Postemergence
  Plant response rating, Corn: 3
[8]; [25]
  Plant response rating, Corn: 0
[9]; Rate 62 g/ha, Postemergence
  Plant response rating, Redroot pigweed: 8
[9]; Rate 62 g/ha, Preemergence
  Redroot pigweed plant response rating: 0
[9]; Rate 125 g/ha, Postemergence
  Redroot pigweed plant response rating: 10
[9]; Rate 125 g/ha, Preemergence
  Redroot pigweed plant response rating: 3
[9]; Rate 250 g/ha, Postemergence
  Plant response rating, Redroot pigweed: 10
[9]; [25]
  Plant response rating, Redroot pigweed: 3
[10]; Rate 62 g/ha, Postemergence
  Plant response rating, Sugarbeets: 9
[10]; Rate 62 g/ha, Preemergence
  Sugarbeets plant response rating: 0
[10]; Rate 125 g/ha, Postemergence
  Sugarbeets plant response rating: 9
[10]; Rate 125 g/ha, Preemergence
  Plant response rating, Sugarbeets: 3
[10]; Rate 250 g/ha, Postemergence
  Plant response rating, Sugarbeets: 10
[10]; [25]
  Plant response rating, Sugarbeets: 4
[11]; Rate 62 g/ha, Postemergence
  Plant response rating, Crabgrass: 4
[11]; Rate 62 g/ha
  Crabgrass plant response rating: 2
[11]; Rate 125 g/ha, Postemergence
  Plant response rating, Crabgrass: 6
[11]; Rate 125 g/ha
  Crabgrass plant response rating: 4
[11]; Rate 250 g/ha, Postemergence
  Plant response rating, Crabgrass: 9
[11]; [25]
  Plant response rating, Crabgrass: 7
[12]; Rate 62 g/ha, Postemergence
  Plant response rating, B. signalgrass: 3
[12]; Rate 62 g/ha
  B. signalgrass plant response rating: 1
[12]; Rate 125 g/ha, Postemergence
  Plant response rating, B. signalgrass: 3
[12]; Rate 125 g/ha
  B. signalgrass plant response rating: 3
[12]; Rate 250 g/ha, Postemergence
  Plant response rating, B. signalgrass: 5
[12]; Rate 250 g/ha, Postemergence as printed in head r139 (second section for compounds 26-50)
  Plant response rating, B. signalgrass: 4
[13]; Rate 62 g/ha, Postemergence
  Plant response rating, Soybean: 3
[13]; Rate 62 g/ha, Preemergence
  Soybean plant response rating: 0
[13]; Rate 125 g/ha, Postemergence
  Soybean plant response rating: 4
[13]; Rate 125 g/ha, Preemergence
  Plant response rating, Soybean: 0
[13]; Rate 250 g/ha, Postemergence
  Plant response rating, Soybean: 7
[13]; [25]
  Plant response rating, Soybean: 0
[14]; Rate 62 g/ha, Postemergence
  Plant response rating, Nutsedge: 0
[14]; Rate 62 g/ha, Preemergence
  Nutsedge plant response rating: 0
[14]; Rate 125 g/ha, Postemergence
  Nutsedge plant response rating: 0
[14]; Rate 125 g/ha, Preemergence
  Nutsedge plant response rating: 0
[15]; Rate 62 g/ha, Postemergence
  Plant response rating, Cocklebur: 6
[15]; Rate 62 g/ha
  Cocklebur plant response rating: 0
[15]; Rate 125 g/ha, Postemergence
  Plant response rating, Cocklebur: 6
[15]; Rate 125 g/ha
  Cocklebur plant response rating: 0
[15]; Rate 250 g/ha, Postemergence
  Plant response rating, Cocklebur: 8
[15]; [25]
  Plant response rating, Cocklebur: 0
[16]; Rate 62 g/ha, Postemergence
  Plant response rating, Velvetleaf: 3
[16]; Rate 62 g/ha, Preemergence
  Velvetleaf plant response rating: 0
[16]; Rate 125 g/ha, Postemergence
  Velvetleaf plant response rating: 3
[16]; Rate 125 g/ha, Preemergence
  Plant response rating, Velvetleaf: 0
[16]; Rate 250 g/ha, Postemergence
  Plant response rating, Velvetleaf: 4
[16]; [25]
  Plant response rating, Velvetleaf: 0
[17]; Rate 62 g/ha, Postemergence
  Plant response rating, Giant foxtail: 3
[17]; Rate 62 g/ha, Preemergence
  Giant foxtail plant response rating: 1
[17]; Rate 125 g/ha, Postemergence
  Giant foxtail plant response rating: 4
[17]; Rate 125 g/ha, Preemergence
  Giant foxtail plant response rating: 4
[17]; Rate 250 g/ha, Postemergence
  Plant response rating, Giant foxtail: 4
[17]; [25]
  Plant response rating, Giant foxtail: 9
[18]; Rate 62 g/ha, Postemergence
  Plant response rating, Blackgrass: 2
[18]; Rate 62 g/ha
  Blackgrass plant response rating: 1
[18]; Rate 125 g/ha, Postemergence
  Plant response rating, Blackgrass: 3
[18]; Rate 125 g/ha
  Blackgrass plant response rating: 1
[18]; Rate 250 g/ha, Postemergence
  Plant response rating, Blackgrass: 5
[18]; [25]
  Plant response rating, Blackgrass: 3
[19]; Rate 62 g/ha, Postemergence
  Wheat plant response rating: 2
[19]; Rate 62 g/ha, Preemergence
  Wheat plant response rating: 0
[19]; Rate 125 g/ha, Postemergence
  Wheat plant response rating: 3
[19]; Rate 125 g/ha, Preemergence
  Plant response rating, Wheat: 0
[19]; Rate 250 g/ha, Postemergence
  Plant response rating, Wheat: 4
[19]; [25]
  Plant response rating, Wheat: 0
[20]; Rate 62 g/ha, Postemergence
  Wild oats plant response rating: 1
[20]; Rate 62 g/ha, Preemergence
  Wild oats plant response rating: 0
[20]; Rate 125 g/ha, Postemergence
  Wild oats plant response rating: 2
[20]; Rate 125 g/ha, Preemergence
  Plant response rating, Wild oats: 0
[20]; Rate 250 g/ha, Postemergence
  Plant response rating, Wild oats: 4
[20]; [25]
  Plant response rating, Wild oats: 1

Reference: patent US6525001B1, “Substituted pyrimidine and pyridine herbicides” (Mid-American Commercialization Corporation, priority 1997, dated 2003)
